Assay results as given in PubChem BioAssay (NCI).
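Each compound was tested at five concentrations against cells in 96-well plates for 48 hours. GI50 = concentration required for 50% inhibition of growth. Definition used: TGI = concentration required for complete inhibition of growth.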

Assays:
Assay in all cases: NCI anticancer screen, dose series, 48 h
[1] = tested on: IGROV1 ovarian
[2] = tested on: UACC-257 melanoma
[3] = tested on: UO-31 renal
[4] = tested on: CCRF-CEM leukemia
[5] = tested on: EKVX NSCLC
[6] = tested on: COLO 205 colon
[7] = tested on: SK-MEL-5 melanoma
[8] = tested on: OVCAR-8 ovarian
[9] = tested on: SN12C renal
[10] = tested on: HCC-2998 colon

| SMILES | GI50 [1] [µM] | TGI [1] [µM] | GI50 [2] [µM] | TGI [2] [µM] | GI50 [3] [µM] | TGI [3] [µM] | GI50 [4] [µM] | TGI [4] [µM] | GI50 [5] [µM] | TGI [5] [µM] | GI50 [6] [µM] | TGI [6] [µM] | GI50 [7] [µM] | TGI [7] [µM] | GI50 [8] [µM] | TGI [8] [µM] | GI50 [9] [µM] | TGI [9] [µM] | GI50 [10] [µM] | TGI [10] [µM] |
| --- | --- | --- | --- | --- | --- | --- | --- | --- | --- | --- | --- | --- | --- | --- | --- | --- | --- | --- | --- | --- |
| Fc1ccc(C2C3CCOc4c(ccc5ccccc45)C3=NN2c2ccccc2)cc1 (configuration not stated) | > 100 | > 100 | 43.9 | > 100 | > 100 | > 100 | 16.6 | > 74.4 | > 87.4 | > 100 | > 100 | > 100 | 71.4 | > 100 | > 60.2 | > 100 | > 100 | > 100 |  |  |
| OCc1ccc(N(Cc2ccc(F)cc2)CC2CCC2)cc1Cl | 0.755 | 4.05 | 1.53 | 7.78 | 8.3 | 21 | 15.1 | 36 |  |  | 13.5 | 26.6 | 13.3 | 26.2 | 14.7 | 32.4 | 12 | 24.7 | 11.5 | 25.2 |
| COc1ccc(/C=C2/CN(CCC#N)C/C(=C\c3ccc(OC)cc3)C2=O)cc1 | 2.77 | 8.26 | 2.63 | 7.44 | 1.74 | 4.86 | 2.46 | > 100 |  |  | 1.91 | 3.5 | 1.39 | 2.74 | 3.05 | > 100 | 2.18 | 6.31 | 1.9 | 3.47 |
| Cc1ccc(NC(=O)C(=O)CC(=O)c2ccccc2)cc1C |  | > 100 |  | > 100 |  | > 100 |  |  |  | > 100 |  | > 100 |  | > 100 |  | > 100 |  | > 100 |  | > 100 |
| Cc1cc(N)cc(C)c1-c1c(Br)cc(N)cc1Br | 4.32 | > 100 | 14.3 | 51.8 | 9.11 | 46 |  |  | 5.65 | > 100 | 2.39 | 4.88 | 4.52 | 16.1 | 4.41 | 28.6 | 6.05 | 73.2 | 3.42 | 16.6 |
| Cn1cnc([N+](=O)[O-])c1Sc1nc2ccc([N+](=O)[O-])cc2[nH]1 |  | 58.6 |  | 33.5 |  | 67.6 |  | 81.1 |  | 46.7 |  | 23.4 |  | 30.6 |  | 39.2 |  |  |  | 29.2 |
| NC(=O)c1ncn(Cc2ccccc2)c1CNC(N)=S |  | > 100 |  |  |  | > 100 |  | > 100 |  | > 100 |  | > 100 |  | > 100 |  | > 100 |  | > 100 |  | > 100 |
| O=c1c2cc(O)c(O)cc2oc2cc(O)c(C3OC(CO)C(O)C(O)C3O)c(O)c12 (configuration not stated) |  | > 100 |  | > 100 |  | > 100 |  | > 100 |  | > 100 |  | > 100 |  | > 100 |  | > 100 |  |  |  | > 100 |
| O=C(CSc1ncc(-c2ccccc2)n1-c1ccccc1)Nc1ccc(-c2nc3ccccc3s2)cc1 | 2.72 | > 100 |  |  |  |  | > 100 | > 100 | 8.82 | > 100 | > 100 | > 100 | > 100 | > 100 |  |  | 71.5 | > 100 | > 100 | > 100 |
